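Grown in 96-well plates, cells were treated for 48 hours with each compound at five concentrations. Insufficient inhibition: endpoint recorded as highest concentration tested. GI50: concentration for 50% inhibition of growth.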 Calls of active or inactive are those of the source. No stated cut-off is given here; in the data, active = GI50 up to about 1.1 µM and inactive = higher.
Legend:
Test in all cases: NCI tumour cell line growth inhibition, 48 h
A498 = system: A498
A549 = system: A549
ACHN = system: ACHN
CAKI-1 = system: CAKI-1
CCRF-CEM = system: CCRF-CEM
COLO 205 = system: COLO 205
DLD-1 = system: DLD-1
DMS-114 = system: DMS-114
DMS-273 = system: DMS-273
EKVX = system: EKVX
HCC 2998 = system: HCC 2998
HCT-116 = system: HCT-116
HCT-15 = system: HCT-15
HL-60 = system: HL-60
HOP-62 = system: HOP-62
HOP-92 = system: HOP-92
HT-29 = system: HT-29
IGROV-1 = system: IGROV-1
K562 = system: K562
KM-20L2 = system: KM-20L2
KM12 = system: KM12
LXFL 529 = system: LXFL 529
M14 = system: M14
M19-MEL = system: M19-MEL
MOLT-4 = system: MOLT-4
Malme-3M = system: Malme-3M
NCI-H23 = system: NCI-H23
NCI-H460 = system: NCI-H460
NCI-H522 = system: NCI-H522
OVCAR-3 = system: OVCAR-3
OVCAR-4 = system: OVCAR-4
OVCAR-5 = system: OVCAR-5
OVCAR-8 = system: OVCAR-8
RPMI-8226 = system: RPMI-8226
RXF 393 = system: RXF 393
SF-268 = system: SF-268
SF-295 = system: SF-295
SF-539 = system: SF-539
SK-MEL-28 = system: SK-MEL-28
SK-MEL-2 = system: SK-MEL-2
SK-MEL-5 = system: SK-MEL-5
SK-OV-3 = system: SK-OV-3
SN12C = system: SN12C
SNB-19 = system: SNB-19
SNB-75 = system: SNB-75
SNB-78 = system: SNB-78
SR = system: SR
SW-620 = system: SW-620
TK-10 = system: TK-10
U-251 = system: U-251
UACC-257 = system: UACC-257
UACC-62 = system: UACC-62
UO-31 = system: UO-31
XF498 = system: XF498
786-0 = system: 786-0
HOP-18 = system: HOP-18
LOX IMVI = system: LOX IMVI
NCI-H226 = system: NCI-H226

## Cc1nc2c(c(=O)[nH]1)S/C(=C(/C#N)c1nc3ccccc3[nH]1)N2c1ccccc1
A498
  GI50: > 100 µM (inactive)
A549
  GI50: > 100 µM (inactive)
ACHN
  GI50: > 100 µM (inactive)
CAKI-1
  GI50: > 100 µM (inactive)
CCRF-CEM
  GI50: > 100 µM (inactive)
COLO 205
  GI50: > 100 µM (inactive)
DLD-1
  GI50: > 100 µM (inactive)
DMS-114
  GI50: > 100 µM (inactive)
DMS-273
  GI50: > 100 µM (inactive)
EKVX
  GI50: > 100 µM (inactive)
HCC 2998
  GI50: > 100 µM (inactive)
HCT-116
  GI50: > 100 µM (inactive)
HCT-15
  GI50: > 100 µM
HL-60
  GI50: > 100 µM (inactive)
HOP-62
  GI50: > 100 µM (inactive)
HOP-92
  GI50: > 100 µM (inactive)
HT-29
  GI50: > 100 µM (inactive)
IGROV-1
  GI50: > 100 µM (inactive)
K562
  GI50: > 100 µM (inactive)
KM-20L2
  GI50: > 100 µM (inactive)
KM12
  GI50: > 100 µM (inactive)
LXFL 529
  GI50: > 100 µM (inactive)
M14
  GI50: > 100 µM (inactive)
M19-MEL
  GI50: > 100 µM (inactive)
MOLT-4
  GI50: > 100 µM (inactive)
Malme-3M
  GI50: > 100 µM (inactive)
NCI-H23
  GI50: > 100 µM (inactive)
NCI-H460
  GI50: > 100 µM (inactive)
NCI-H522
  GI50: > 100 µM (inactive)
OVCAR-3
  GI50: > 100 µM (inactive)
OVCAR-4
  GI50: > 100 µM (inactive)
OVCAR-5
  GI50: > 100 µM (inactive)
OVCAR-8
  GI50: > 100 µM (inactive)
RPMI-8226
  GI50: > 100 µM (inactive)
RXF 393
  GI50: > 100 µM (inactive)
SF-268
  GI50: > 100 µM (inactive)
SF-295
  GI50: > 100 µM (inactive)
SF-539
  GI50: > 100 µM (inactive)
SK-MEL-28
  GI50: > 100 µM (inactive)
SK-MEL-2
  GI50: > 100 µM (inactive)
SK-MEL-5
  GI50: > 100 µM (inactive)
SK-OV-3
  GI50: > 100 µM (inactive)
SN12C
  GI50: > 100 µM (inactive)
SNB-19
  GI50: > 100 µM (inactive)
SNB-75
  GI50: > 100 µM (inactive)
SNB-78
  GI50: 0.607 µM (active)
SR
  GI50: > 100 µM (inactive)
SW-620
  GI50: > 100 µM (inactive)
TK-10
  GI50: > 100 µM (inactive)
U-251
  GI50: > 100 µM (inactive)
UACC-257
  GI50: > 100 µM (inactive)
UACC-62
  GI50: > 100 µM (inactive)
UO-31
  GI50: > 100 µM (inactive)
XF498
  GI50: > 100 µM (inactive)

## CCS[C@H]1NC(=O)C1[C@H](C)O[Si](C)(C)C(C)(C)C (stereo partly drawn)
786-0
  GI50: > 100 µM (inactive)
A498
  GI50: > 100 µM (inactive)
A549
  GI50: 81.3 µM (inactive)
ACHN
  GI50: > 100 µM (inactive)
CAKI-1
  GI50: 74 µM (inactive)
COLO 205
  GI50: > 100 µM (inactive)
DLD-1
  GI50: > 100 µM (inactive)
DMS-114
  GI50: 84.3 µM (inactive)
DMS-273
  GI50: 97.7 µM (inactive)
EKVX
  GI50: > 100 µM (inactive)
HCT-116
  GI50: 86.1 µM (inactive)
HCT-15
  GI50: > 100 µM
HOP-18
  GI50: > 100 µM (inactive)
HOP-62
  GI50: > 100 µM (inactive)
HOP-92
  GI50: 79.8 µM (inactive)
HT-29
  GI50: > 100 µM (inactive)
IGROV-1
  GI50: > 100 µM (inactive)
K562
  GI50: 34.3 µM (inactive)
KM-20L2
  GI50: > 100 µM (inactive)
KM12
  GI50: > 100 µM (inactive)
LOX IMVI
  GI50: 32.2 µM (inactive)
M19-MEL
  GI50: > 100 µM (inactive)
Malme-3M
  GI50: > 100 µM (inactive)
NCI-H23
  GI50: > 100 µM (inactive)
NCI-H460
  GI50: > 100 µM (inactive)
OVCAR-3
  GI50: > 100 µM (inactive)
OVCAR-4
  GI50: > 100 µM (inactive)
OVCAR-5
  GI50: 75.5 µM (inactive)
OVCAR-8
  GI50: > 100 µM (inactive)
RPMI-8226
  GI50: 31.6 µM (inactive)
RXF 393
  GI50: 52.8 µM (inactive)
SF-268
  GI50: > 100 µM (inactive)
SF-295
  GI50: > 100 µM (inactive)
SF-539
  GI50: > 100 µM (inactive)
SK-MEL-28
  GI50: > 100 µM (inactive)
SK-MEL-2
  GI50: > 100 µM (inactive)
SN12C
  GI50: > 100 µM (inactive)
SNB-19
  GI50: > 100 µM (inactive)
SNB-75
  GI50: > 100 µM (inactive)
SNB-78
  GI50: > 100 µM (inactive)
SW-620
  GI50: > 100 µM (inactive)
TK-10
  GI50: > 100 µM (inactive)
U-251
  GI50: > 100 µM (inactive)
UACC-257
  GI50: 48 µM (inactive)
UACC-62
  GI50: > 100 µM (inactive)
XF498
  GI50: > 100 µM (inactive)

## COc1cc(/C=C/c2csnn2)cc(OC)c1OC
786-0
  GI50: > 100 µM (inactive)
A549
  GI50: > 100 µM (inactive)
ACHN
  GI50: 78.3 µM (inactive)
CAKI-1
  GI50: > 100 µM (inactive)
CCRF-CEM
  GI50: > 100 µM (inactive)
DLD-1
  GI50: > 100 µM (inactive)
DMS-114
  GI50: > 100 µM (inactive)
EKVX
  GI50: 52.2 µM (inactive)
HCC 2998
  GI50: > 100 µM (inactive)
HCT-116
  GI50: > 100 µM (inactive)
HCT-15
  GI50: > 100 µM
HL-60
  GI50: > 100 µM (inactive)
HOP-18
  GI50: > 100 µM (inactive)
HOP-62
  GI50: > 100 µM (inactive)
HOP-92
  GI50: 66.7 µM (inactive)
HT-29
  GI50: > 100 µM (inactive)
IGROV-1
  GI50: > 100 µM (inactive)
K562
  GI50: > 100 µM (inactive)
KM12
  GI50: > 100 µM (inactive)
LOX IMVI
  GI50: > 100 µM (inactive)
LXFL 529
  GI50: > 100 µM (inactive)
M14
  GI50: > 100 µM (inactive)
M19-MEL
  GI50: > 100 µM (inactive)
MOLT-4
  GI50: > 100 µM (inactive)
Malme-3M
  GI50: > 100 µM (inactive)
NCI-H226
  GI50: > 100 µM (inactive)
NCI-H23
  GI50: > 100 µM (inactive)
NCI-H460
  GI50: > 100 µM (inactive)
NCI-H522
  GI50: > 100 µM (inactive)
OVCAR-3
  GI50: > 100 µM (inactive)
OVCAR-4
  GI50: > 100 µM (inactive)
OVCAR-5
  GI50: > 100 µM (inactive)
OVCAR-8
  GI50: > 100 µM (inactive)
RPMI-8226
  GI50: > 100 µM (inactive)
RXF 393
  GI50: > 100 µM (inactive)
SF-268
  GI50: 67 µM (inactive)
SF-295
  GI50: > 100 µM (inactive)
SF-539
  GI50: > 100 µM (inactive)
SK-MEL-28
  GI50: > 100 µM (inactive)
SK-MEL-2
  GI50: > 100 µM (inactive)
SK-MEL-5
  GI50: > 100 µM (inactive)
SK-OV-3
  GI50: > 100 µM (inactive)
SN12C
  GI50: > 100 µM (inactive)
SNB-19
  GI50: > 100 µM (inactive)
SNB-78
  GI50: > 100 µM (inactive)
SR
  GI50: > 100 µM (inactive)
SW-620
  GI50: > 100 µM (inactive)
TK-10
  GI50: > 100 µM (inactive)
U-251
  GI50: > 100 µM (inactive)
UACC-257
  GI50: > 100 µM (inactive)
UACC-62
  GI50: > 100 µM (inactive)
UO-31
  GI50: > 100 µM (inactive)
XF498
  GI50: > 100 µM (inactive)

From ChEMBL document CHEMBL1201862, “PubChem BioAssay data set” (2004)
